# Measured values published in patent US20180284132A1, “KITS FOR STRATIFYING SCOLIOTIC SUBJECTS” (CHU SAINTE-JUSTINE, priority 2013, published 2018).
# Experiments:
# [1] = system: melatonin receptor; experiment: Cellular response of osteoblasts to melatonin receptor agonists, cellular dielectric spectroscopy (CDS); format: cell-based, human; settings: for order of agonist potency: response at maximum concentration (10 μM), osteoblasts of control and AIS groups
# Experimental: (§1) Data were normalised to maximal response (% maximal response) in cells from control subjects. […] The impedance represented in y-axis as dZiec, indicates the resistance (ohms) of the cells toward the electric current applied by the Cellkey™ apparatus and represents the integrated cellular response. […] Cellular responses shown on the y-axis in (FIG. 3A) to (FIG. 3E) were measured by CDS.
# Osteoblasts were isolated from bone specimens obtained intraoperatively from vertebras (varying from T3 to L4 according to the surgical procedure performed) and from other anatomical sites (tibia or femur) in AIS patients and trauma control cases, respectively as previously described (Moreau et al., 2004).
# (§2) The functionality of Gi, Gs and Gq proteins was evaluated by CDS assay in osteoblasts, and the functionality of Gi was also evaluated by CDS assay in myoblasts and PBMCs from the same individuals, using CellKey™ apparatus, as previously described (Akoume et al., 2010 and WO 2010/040234, 2010 to Moreau et al.).
# The response produced with their maximum concentration (10 μM) in osteoblasts from control subjects and AIS patients of each functional group was compared.
# [2] = system: response to Gi stimulation; experiment: Effect of Gi and Gs siRNA on response to Gi stimulation in osteoblasts (CDS); format: cell-based, human
# Experimental: FIG. 12A-FIG. 12H show the differential effects of Gi and Gs siRNA on response to Gi stimulation in AIS functional groups. Osteoblasts from (FIG. 12A) control subjects, (FIG. 12B) FG3, (FIG. 12C) FG2; and (FIG. 12D) FG1 were transfected with Gi1, Gi2, Gi3 or Gs siRNA alone or in combination, or with scrambled siRNA, as indicated in Example 1—Materials and Methods. Efficiency of siRNA was verified with qPCR in each functional group (FIG. 12E to FIG. 12H) 48 hours after transfection, and response to Gi stimulation was measured by CDS and evaluated by challenging cells with Apelin-17, LPA or Somatostatin. Results from a single representative subject for each group are presented. Data were normalised to response in cells transfected with scrambled siRNA (% response shown on the y-axis and measured by CDS), and are expressed as mean±SE, of n=6 patients in each functional group. * P<0.05, **P<0.01, ***P<0.001, vs. control group.
# as §2
# All Gi1, Gi2, Gi3, Gs and scrambled siRNA were obtained from Ambion (Ambion USA). Osteoblasts from control subjects and AIS patients were transiently transfected in serum-free medium, using Lipofectamine RNAiMAX™ reagent (Invitrogen) according to the manufacturer's instructions and functional experiments were performed 48 h post transfection. The gene knockdown was evaluated by quantitative real-time PCR (qPCR).
# Silencing of each gene reduced by 75-85% the expression of the corresponding mRNA in osteoblasts from control and the three AIS groups (FIGS. 12E-H). […] The response to each tested agonist was reduced by at least 75% by silencing Gi3 alone in FG2 osteoblasts (FIG. 12C), and by 90% by silencing Gi1 alone in FG3 osteoblasts ([…]) confirming that the residual response to Gi stimulation is mediated by Gi3 and Gi1 isoforms in FG2 and FG3 groups, respectively. In FG1 osteoblasts, response to each agonist was reduced by 50% following the depletion of all Gi isoforms by siRNA, and was not affected by the knockdown of individual Gi isoforms ([…]).
# [3] = system: response to Gi stimulation; experiment: Effect of serine/threonine kinase inhibitors on response to Gi stimulation in osteoblasts (CDS); format: cell-based, human; settings: inhibitor 5 μM, 1 hour before agonist
# Experimental: FIG. 13A-FIG. 13B show the effect of various serine/threonine kinase inhibitors on response to Gi stimulation in osteoblasts from control and AIS functional groups. Cells were treated with Protein kinase A (PKA) inhibitor H89 (5 μM), Protein kinase C (PKC) inhibitor Gö6983 (5 μM), Ca^2+/calmodulin-dependent protein kinase (CaMK) (1,2,4) inhibitor STO-609 acetate (5 μM), Ca^2+/calmodulin-dependent protein kinase II (CaMK-2) inhibitor KN93 (5 μM), Casein kinase 1 (CK1) inhibitor D4476 (5 μM) or vehicle for 1 hour prior to stimulation with (FIG. 13A) LPA (10^−6 M) or (FIG. 13B) Somatostatin (10^−6 M). Response to Gi stimulation was measured by CDS. Data were normalised to response in osteoblasts treated with vehicle (% response in presence of vehicle shown on the y-axis and measured by CDS), and are expressed as mean±SE, of n=12 patients in each functional group. * P<0.05, **P<0.01, ***P<0.001, vs control group.
# as §2
# In order to identify putative serine/threonine kinases phosphorylating Gi isoforms in AIS, control and AIS osteoblasts were treated with a panel of serine/threonine kinase inhibitors prior to their stimulation with two distinct agonists (LPA and somatostatin). Of note, Gi stimulation induced via LPA or somatostatin receptor activation by their agonists in control osteoblasts was not affected by any kinase inhibitor (FIG. 13A-FIG. 13B). […] Cellular response in FG3 osteoblasts was not improved by inhibition of neither of PKC nor CaMK.
# [4] = system: beta-adrenergic receptor; experiment: Functional status of Gs protein in osteoblasts, isoproterenol challenge (CDS); format: cell-based, human
# Experimental: as §2
# [5] = system: melatonin receptor; settings: normal osteoblasts; CDS (Akoume et al., 2010); cited from earlier work
# [6] = system: Gi proteins; experiment: Inhibition by GPAnt-2 or pertussis toxin of osteoblast response to Gi-coupled receptor agonists (CDS); format: cell-based, human; settings: for effect on cellular response to melatonin: 16 hours
# Experimental: as §1, §2
compound,measurement,setting,value
COc1ccc2[nH]c(-c3ccccc3)c(CCNC(C)=O)c2c1 [phenylmelatonin],order of agonist potency,[1],phenylmelatonin>iodomelatonin>melatonin
"Gs siRNA: siRNA from Ambion, ACAACAUGGUCAUCCGGGAGGACAA (SEQ ID NO: 100)",reduction of response to each tested agonist,[2]; FG1 osteoblasts,50%
same,reduction of response to each tested agonist,[2]; FG2 osteoblasts,devoid of effect
same,reduction of response to each tested agonist,[2]; FG3 osteoblasts,devoid of effect
same,reduction of response to each tested agonist,[2]; control group osteoblasts,devoid of effect
"Gi2 siRNA: siRNA from Ambion, GAGGACCUGAAUAAGCGCAAAGACA (SEQ ID NO: 98)",reduction of response to each tested agonist,[2]; control group osteoblasts,not significantly affected
STO-609 acetate,effect on response to Gi stimulation via LPA or somatostatin,[3]; FG1 osteoblasts,significantly increased
same,effect on response to Gi stimulation via LPA or somatostatin,[3]; FG2 osteoblasts,increased the signalling response
same,effect on response to Gi stimulation via LPA or somatostatin,[3]; FG3 osteoblasts,not improved
CC(C)NCC(O)c1ccc(O)c(O)c1 (stereo not shown) [isoproterenol],"cellular response, AIS osteoblasts vs control osteoblasts",[4],significantly enhanced
COc1ccc2[nH]cc(CCNC(C)=O)c2c1 [melatonin],G protein dependence of cellular response to melatonin receptor stimulation,[5],mainly Gi-dependent in normal osteoblasts
same,concentration at which the response reaches a plateau,"[1]; osteoblasts, all control and AIS groups",1 µM
same,cellular response to melatonin,"[1]; osteoblasts, all control and AIS groups, CDS",concentration-dependent increase of response
same,order of magnitude of the maximum response from highest to lowest,"[1]; osteoblasts, control vs AIS functional groups","control group, FG3, FG2 and FG1"
same,order of agonist potency,[1],phenylmelatonin>iodomelatonin>melatonin
COc1ccc(S(=O)(=O)N(CCO)c2ccccc2CN(C)C/C=C/c2ccc(Cl)cc2)cc1 [KN93],effect on response to Gi stimulation via LPA or somatostatin,[3]; FG1 osteoblasts,unaffected
same,effect on response to Gi stimulation via LPA or somatostatin,[3]; FG2 osteoblasts,increased the signalling response
same,effect on response to Gi stimulation via LPA or somatostatin,[3]; FG3 osteoblasts,not improved
O=S(=O)(NCCNC/C=C/c1ccc(Br)cc1)c1cccc2cnccc12 [H89],effect on response to Gi stimulation via LPA or somatostatin,[3]; FG1 osteoblasts,increased the signalling response
same,effect on response to Gi stimulation via LPA or somatostatin,[3]; FG2 osteoblasts,increased the signalling response
same,effect on response to Gi stimulation via LPA or somatostatin,[3]; FG3 osteoblasts,increased the signalling response
"COc1ccc2c(c1)c(C1=C(c3c[nH]c4ccccc34)C(=O)NC1=O)cn2CCCN(C)C [Gö8963, Gö6983]",effect on response to Gi stimulation via LPA or somatostatin,[3]; FG1 osteoblasts,significantly increased
same,effect on response to Gi stimulation via LPA or somatostatin,[3]; FG2 osteoblasts,devoid of significant effect
same,effect on response to Gi stimulation via LPA or somatostatin,[3]; FG3 osteoblasts,not improved
NC(=O)c1ccc(-c2nc(-c3ccc4c(c3)OCCO4)c(-c3ccccn3)[nH]2)cc1 [D4476],effect on response to Gi stimulation via LPA or somatostatin,[3]; FG1 osteoblasts,increased response
same,effect on response to Gi stimulation via LPA or somatostatin,[3]; FG3 osteoblasts,increased response
COc1ccc2[nH]c(I)c(CCNC(C)=O)c2c1 [iodomelatonin],order of agonist potency,[1],phenylmelatonin>iodomelatonin>melatonin
pertussis toxin [PTX],effect on cellular response to melatonin,"[6]; FG1 osteoblasts, maximal concentration",enhanced the response to melatonin
same,effect on cellular response to melatonin,"[6]; FG2 and FG3 osteoblasts, increasing concentration",reduced the cellular response to melatonin
same,effect on response to mastoparan,"[6]; high concentrations, all AIS and control groups",almost abolished
same,inhibition curve patterns,"[6]; response to any of the five synthetic agonists, osteoblasts (GPAnt-2 4 h, PTX 16 h)",curve patterns similar to those obtained with melatonin
